Measurements published in publication PMC11672562, “Synthesis and Antibacterial Activity of New 6″-Modified Tobramycin Derivatives” (Antibiotics, 2024).
In brackets after ≈: the same amount, converted by molar mass.

Experiments:
Type in all cases: cell-based
P. aeruginosa ATCC 27853 = assay: MIC, broth microdilution, P. aeruginosa ATCC 27853; conditions: for MIC: Pseudomonas aeruginosa, ATCC27853, P. aeruginosa ATCC 27853, Table 1, read-out: MIC
Procedure: The microbial strains used in this study were obtained from the collection of the Gause Institute of New Antibiotics. […] Storage was carried out in accordance with CLSI guidelines.
(§1) Activity was evaluated by determining the minimum inhibitory concentration (MIC) values using the microdilution method in Mueller–Hinton Broth (Beckton and Dickinson, Le Pont-de-Claix, France), in accordance with the standard procedure for assessing the antimicrobial susceptibility of microorganisms.
(§2) The analysis was conducted in 96-well microtiter plates (Medpolymer, Saint Petersburg, Russia). The bacterial inoculum was introduced within 15 min of preparation. […] Microbial growth in the presence of the tested compounds was compared to the growth control (without exposure to the test samples). The MIC was defined as the lowest concentration at which visible microbial growth was inhibited.
(§3) The MIC values of the reference strains were required to fall within the acceptable ranges specified in [30], provided that standard assay conditions were maintained.

E. coli JW5503 kanS = assay: MIC in LB medium, E. coli JW5503 kanS; conditions: Escherichia coli, JW5503KANS, 18 h
Procedure: The determination of the minimum inhibitory concentration (MIC) was performed on three strains from the working collection of MSU: E. coli JW5503 [34], which lacked a kanamycin resistance cassette removed as per the method outlined in [39], and two strains derived from this strain through in vivo selection with kanamycin. The latter strains harbored P610T and P610L substitutions in the fusA gene. For the MIC determination, 100 μL (rows 2–11) and 200 μL (row 1) of LB liquid medium containing a 1:1000 dilution of overnight culture was added to each well of a 96-well transparent plate. Subsequently, 2 μL of a 50 μg/mL antibiotic solution was introduced into the first row, and serial two-fold dilutions were performed across each horizontal row, decreasing the antibiotic concentration incrementally. The final two rows were designated as controls: row 12 contained LB medium without cells or antibiotics, and row 11 contained cells without antibiotics. Following 18 h of incubation at 37 °C with constant agitation, the optical density at 590 nm (A590) was measured using a Victor X5 2030 spectrofluorometer (PerkinElmer, Waltham, MA, USA). The MIC was defined as the antibiotic concentration in the first well where no cell growth occurred. Each experiment was conducted in triplicate for all tested antibiotics.

E. coli ATCC 25922 = assay: MIC, broth microdilution, E. coli ATCC 25922; conditions: for MIC: Escherichia coli, ATCC25922, Table 1, read-out: MIC
Procedure: (§4) The microbial strains used in this study were obtained from the collection of the Gause Institute of New Antibiotics. […] Storage was carried out in accordance with CLSI guidelines. Prior to experimentation, the bacterial strains were revived from cryopreservation by inoculating them onto trypticase soy agar (Becton, Dickinson, France) and incubating at (36 ± 1) °C for 16–24 h. Individual morphologically homogeneous colonies were then suspended in sterile physiological saline, and the turbidity of the suspension was adjusted to 0.5 McFarland units using a DEN-1 spectrophotometer (Biosan, Riga, Latvia), which corresponds to a concentration of 1.5 × 10^8 CFU/mL.
(§5) The samples were dissolved in sterile distilled water or dimethyl sulfoxide (DMSO), depending on the physicochemical properties of the compounds under investigation, to a concentration of 10,000 µg/mL.
as §1, §2, §3

S. aureus ATCC 29213 = assay: MIC, broth microdilution, S. aureus ATCC 29213; conditions: Staphylococcus aureus, ATCC29213, Table 1, read-out: MIC
Procedure: as §4, §5, §1, §2, §3

[1] = test system: E. coli JW5503 transformed with pJC27 plasmids; assay: Translation accuracy reporter (mutant β-galactosidase, X-Gal staining); conditions: 4a,b, 6a,b and tobramycin 50 mg/mL; streptomycin, kanamycin 5 mg/mL; rifampicin 1 mg/mL
Source text: It is known that tobramycin inhibits protein biosynthesis by the blocking of initiation and inducing translation errors. We have tested whether the new tobramycin derivatives 4a,b and 6a,b retain the ability to induce translation errors. This assay uses an E. coli strain with a plasmid construct that encodes beta-galactosidase in such a way that a functional protein is only synthesized in the presence of translation errors. If the mechanism of action of the antibiotic is related to the translation errors, we observe indigo blue staining along the edge of the inhibition zone because functional b-galactosidase degrades the substrate X-Gal. As a result, if the antibiotic causes translation errors, blue staining forms around the edge of the inhibition zone. […] According to this, an introduction at the 6″-position of the aminoalkylamino or guanidinoalkylamino residues of tobramycin retains an original mechanism of aminoglycoside’s antibacterial activity affecting the protein synthesis.
To qualitatively evaluate translation accuracy in the presence of antibiotics, E. coli JW5503 [34] (kanamycin resistance cassette removed as per) transformed with pJC27 plasmids was utilized. The plasmids encode the β-galactosidase gene containing a mutation in its active center (E537: GAA→GAC/GGG), alongside a control plasmid without the mutation. Active β-galactosidase synthesis could only occur if translation errors were introduced. Petri dishes (9 cm) containing 20 mL of solid LB agar (1.5%) supplemented with chloramphenicol (11.3 μg/mL) and X-Gal (80 μg/mL) were prepared. A secondary layer comprising 3.5 mL of LB agar (0.6%), supplemented with 11.3 μg/mL chloramphenicol and 0.5 mL of liquid culture (A600~1.0), was added and allowed to solidify. Antibiotics were applied to the plates in 1 μL aliquots at the following concentrations: 50 mg/mL for 4a, 4b, 6a, 6b, and tobramycin; 5 mg/mL for streptomycin and kanamycin; and 1 mg/mL for rifampicin. Plates were incubated at 37 °C for 18 h. […] Results were documented using a Samsung Galaxy Tab A71 camera.

NCCCNC[C@H]1O[C@H](O[C@@H]2[C@@H](O)[C@H](O[C@H]3O[C@H](CN)[C@@H](O)C[C@H]3N)[C@@H](N)C[C@H]2N)[C@H](O)[C@@H](N)[C@@H]1O [Compound 4b, 6″-(3-Aminopropyl-1-amino)-6″-deoxytobramycin acetate] was tested, and the MIC (P. aeruginosa ATCC 27853) was 8 µg/mL, the MIC (E. coli JW5503 kanS) was 20 µg/mL and the MIC (E. coli ATCC 25922) was 1 µg/mL. The MIC (S. aureus ATCC 29213) was 0.125 µg/mL and the “induction of translation errors (blue staining at edge of inhibition zone)” value [1] was “caused a blue coloring of the bacterial lawn”.

N=C(N)NCCCNC[C@H]1O[C@H](O[C@@H]2[C@@H](O)[C@H](O[C@H]3O[C@H](CN)[C@@H](O)C[C@H]3N)[C@@H](N)C[C@H]2N)[C@H](O)[C@@H](N)[C@@H]1O [Compound 6b, 6″-(3-Guanidinopropyl-1-amino)-6″-deoxytobramycin acetate] showed an MIC (P. aeruginosa ATCC 27853) of 2 µg/mL, an MIC (E. coli JW5503 kanS) of 40 µg/mL and an MIC (E. coli ATCC 25922) of 2 µg/mL. The MIC (S. aureus ATCC 29213) was 0.5 µg/mL and the “induction of translation errors (blue staining at edge of inhibition zone)” value [1] was “caused a blue coloring of the bacterial lawn”.

NC[C@H]1O[C@H](O[C@H]2[C@H](O)[C@@H](O[C@H]3O[C@H](CO)[C@@H](O)[C@H](N)[C@H]3O)[C@H](N)C[C@@H]2N)[C@H](N)C[C@@H]1O [Tobramycin, tobramycin] was tested, and the “MIC of control antibiotic” value (P. aeruginosa ATCC 27853; P. aeruginosa ATCC 27853, quality control, must fall in acceptable ranges of [30]) was 0.25 to 1 µg/mL, the MIC (P. aeruginosa ATCC 27853) was 0.5 µg/mL (≈ 1.07 µM) and the MIC (E. coli JW5503 kanS) was 5 µg/mL (≈ 10.7 µM). The MIC (E. coli ATCC 25922) was 0.25 µg/mL (≈ 0.535 µM), the “MIC of control antibiotic” value (E. coli ATCC 25922; quality control, must fall in acceptable ranges of [30]) was 0.25 to 1 µg/mL and the MIC (S. aureus ATCC 29213) was 0.06 µg/mL (≈ 0.128 µM). The “induction of translation errors (blue staining at edge of inhibition zone)” value [1] was “increase the misreading”.

NCCNC[C@H]1O[C@H](O[C@@H]2[C@@H](O)[C@H](O[C@H]3O[C@H](CN)[C@@H](O)C[C@H]3N)[C@@H](N)C[C@H]2N)[C@H](O)[C@@H](N)[C@@H]1O [Compound 4a, 6″-(2-Aminoethyamino)-6″-deoxytobramycin acetate] was tested, and the MIC (P. aeruginosa ATCC 27853) was 1 µg/mL, the MIC (E. coli JW5503 kanS) was 10 µg/mL and the MIC (E. coli ATCC 25922) was 0.5 µg/mL. The MIC (S. aureus ATCC 29213) was 0.125 µg/mL and the “induction of translation errors (blue staining at edge of inhibition zone)” value [1] was “caused a blue coloring of the bacterial lawn”.

Molecule N=C(N)NCCNC[C@H]1O[C@H](O[C@@H]2[C@@H](O)[C@H](O[C@H]3O[C@H](CN)[C@@H](O)C[C@H]3N)[C@@H](N)C[C@H]2N)[C@H](O)[C@@H](N)[C@@H]1O [Compound 6a, 6″-(2-Guanidinoethylamino)-6″-deoxytobramycin acetate] has an MIC (P. aeruginosa ATCC 27853) of 1 µg/mL, an MIC (E. coli JW5503 kanS) of 10 µg/mL and an MIC (E. coli ATCC 25922) of 1 µg/mL. For the same molecule, the MIC (S. aureus ATCC 29213) was 0.125 µg/mL and the “induction of translation errors (blue staining at edge of inhibition zone)” value [1] was “caused a blue coloring of the bacterial lawn”.
